{"source": "patent US20230357300A1", "about": "“TRITERPENE SAPONIN SYNTHESIS, INTERMEDIATES AND ADJUVANT COMBINATIONS” (priority 2017, published 2023)", "key": {"mice [1]": {"tested_on": "mice", "experiment": "Adacel (Tdap vaccine) immunogenicity in mice, anti-PT antibody in serum", "format": "in vivo", "details": "for augmentation of antibody levels compared to immunization with Adacel alone: 2 weeks after second SC immunization, adjuvant given with Adacel", "procedure": "(§1) Adacel doses containing 1, 0.3, and 0.1 mcg of pertussis toxin per mouse were administered subcutaneously (SC, with no immunological adjuvant), using 2 vaccinations 4 weeks apart, resulting in a mean of 1,618 mcg, 898 mcg, and 107 mcg respectively of anti-PT antibody per ml of serum drawn 2 weeks after the second vaccination. The 0.1 mcg dose was indistinguishable from unvaccinated controls (96 mcg/ml). A 0.5 mcg dose of Adacel was selected for a pharmacology/toxicology (pharm/tox) study. The serological results for this study are summarized in FIG. 3 of the present application."}, "Stability at 37° C.": {"experiment": "Stability at 37° C.", "format": "physicochemical", "details": "for degradation: after two weeks at 37° C.", "procedure": "(§2) Natural and synthetic QS-21 (SQS-21 or SAPONEX®) and a variety of analogs were tested for hemolytic activity. […] FIG. 5 depicts results a hemolytic assay performed with TiterQuil-1055. In a companion toxicity study three days after immunization, animals that received 20 mcg of QS-21 have lost 8-10% of their body mass on average, whereas PBS, TiterQuil-101 and TiterQuil-1055 recipients have gained 5% on average (normal weight gain in young mice). Without being bound by theory, hemolytic activity may be a direct result of degradation of QS-21 under physiologic conditions and TiterQuil-1055′s lack of hemolytic activity may result from improved stability."}, "mice [2]": {"tested_on": "mice", "experiment": "Engerix-B (hepatitis B vaccine) immunogenicity in mice, anti-HBsAg antibody", "format": "in vivo", "procedure": "(§3) Experiments were conducted with Engerix-B (HBV adult vaccine) in groups of 10 mice. Initially 3 mcg, 1 mcg, 0.3 mcg, 0.1 mcg, and 0.03 mcg Engerix-B doses per mouse were tested. Mean resulting anti-HBsAg antibody levels were 92,512 mcg/ml, 64,255 mcg/ml, 24,847 mcg/ml, 3,682 mcg/ml, and 910 mcg/ml respectively, with the 0.03 dose being indistinguishable from controls (821 mcg/ml). The 0.3 mcg dose of Engerix-B was selected for further studies and this dose was used mixed with various doses of TiterQuil-1055 (TQL-1055 / Compound I-4). The resulting geometric mean antibody concentrations are summarized in FIG. 4 of the present application."}, "[3]": {"experiment": "Body weight of mice in the Engerix-B / TiterQuil-1055 dose study", "format": "in vivo", "procedure": "as §3"}, "mice [4]": {"tested_on": "mice", "format": "in vivo", "details": "for changes in blood chemistry or hematology results: mice vaccinated SC days 1 and 15; for weight loss (body weight): mice, 50 mcg TiterQuil-1055, 20 mcg QS-21; for liver histopathology (hepatocellular cytoplasmic vacuolization / vacuolar changes): sacrificed day 22, 33 tissues examined", "procedure": "as §1\nA pharm/tox study was conducted in 7 groups of 5 mice: 1) PBS alone, 2) 50 mcg TiterQuil-1055, 3) 20 mcg QS-21, 4) Adacel 2.5 mcg pertussis toxin (⅕ the human dose), 5) Adacel + QS-21 (20 mcg QS-21), 6) Adacel + TiterQuil-1055 (50 mcg), 7) Adacel + TiterQuil-1055 (50 mcg). Mice were vaccinated SC on days 1 and 15, weighed daily, and bled and sacrificed on day 22, except for group 7 which was sacrificed on day 29. […] Histopathology of 33 different tissues was performed on all mice. Detected abnormalities were restricted to the liver. […] This abnormality was short lived and was no detected in group 7, which was sacrificed one week after groups 1-6."}, "hemolysis": {"tested_on": "hemolysis", "experiment": "Hemolytic assay", "format": "cell-based", "procedure": "FIG. 5 depicts data showing the hemolytic activity of QS-21 at 2uM, 5uM and 20uM, and Compound 26 (TiterQuil-1-0-5-5 / TQL-1055) at 20uM, 100uM and 200uM. % Hemolytic activity reported as % of Triton-X100/SDS lysis control.\nas §2"}, "[5]": {"experiment": "Companion toxicity study, body mass three days after immunization", "format": "in vivo, mice", "procedure": "as §2"}, "[6]": {"details": "cited from earlier work"}, "[7]": {"details": "50 mcg TiterQuil-1055, 20 mcg QS-21, Adacel 2.5 mcg pertussis toxin"}}, "data": [{"compound": "CC1O[C@@H](OC2C(O)[C@@H](NC(=O)CCCCCCCCCCC(=O)O)C(CO)O[C@H]2OC(=O)[C@]23CCC(C)(C)CC2C2=CCC4C5(C)CC[C@H](O)C(C)(C=O)[C@@H]5CC[C@@]4(C)C2(C)CC3O)C(O)C(O)[C@H]1O[C@@H]1OC[C@@H](O)C(O)C1O", "note": "(stereo partly shown) [TiterQuil-1055]", "values": [{"measurement": "antibody levels 2 weeks later", "setting": "mice [1]; Adacel with TiterQuil-1055, 2 weeks after the first reading", "value": "further increased"}, {"measurement": "augmentation of antibody levels compared to immunization with Adacel alone", "setting": "mice [1]; groups of 5 mice", "value": 70, "unit": "fold"}, {"measurement": "antibody levels 2 weeks after the second SC immunization", "setting": "mice [1]; pharm/tox study, groups of 5 mice, Adacel alone or Adacel with TiterQuil-1055", "value": "52,344"}, {"measurement": "degradation", "setting": "Stability at 37° C.", "value": "without detectable degradation"}, {"measurement": "stability", "setting": "Stability at 37° C.; compared with QS-21", "value": "increased stability"}, {"measurement": "increase in antibody levels compared to Engerix-B alone", "setting": "mice [2]; 10 mcg TiterQuil-1055 mixed with 0.3 mcg Engerix-B", "value": "no serologic effect"}, {"measurement": "increase in antibody levels compared to Engerix-B alone", "setting": "mice [2]; 30 mcg TiterQuil-1055 mixed with 0.3 mcg Engerix-B", "value": "> 6", "unit": "fold"}, {"measurement": "increase in antibody levels compared to Engerix-B alone", "setting": "mice [2]; 100 mcg TiterQuil-1055 mixed with 0.3 mcg Engerix-B", "value": 5, "unit": "fold"}, {"measurement": "antibody response at high adjuvant doses", "setting": "mice [2]; TiterQuil-1055 doses above 50 mcg per mouse", "value": "Lack of antibody increase or decreasing responses"}, {"measurement": "weight loss", "setting": "[3]; 30 mcg TiterQuil-1055 dose", "value": "No weight loss"}, {"measurement": "weight loss", "setting": "[3]; 100 mcg TiterQuil-1055 dose", "value": 4, "unit": "%"}, {"measurement": "weight loss", "setting": "[3]; 300 mcg TiterQuil-1055 dose", "value": 5, "unit": "%"}, {"measurement": "weight loss", "setting": "mice [4]; mice vaccinated SC days 1 and 15, weighed daily, 50 mcg TiterQuil-1055, 20 mcg QS-21, Adacel 2.5 mcg pertussis toxin", "value": "no other mice"}, {"measurement": "changes in blood chemistry or hematology results", "setting": "mice [4]; [7]", "value": "No changes"}, {"measurement": "weight loss (body weight)", "setting": "mice [4]", "value": "No weight loss"}, {"measurement": "liver histopathology (hepatocellular cytoplasmic vacuolization / vacuolar changes)", "setting": "mice [4]; [7]", "value": "No changes at all"}, {"measurement": "hemolytic activity", "setting": "hemolysis", "value": "much lower or undetectable hemolytic activity"}, {"measurement": "body mass gained on average", "setting": "[5]", "value": 5, "unit": "%"}]}, {"compound": "QS-21 [reference compound]", "values": [{"measurement": "augmentation of antibody levels compared to immunization with Adacel alone", "setting": "mice [1]; groups of 5 mice", "value": 10, "unit": "fold"}, {"measurement": "degradation", "setting": "Stability at 37° C.", "value": 20, "unit": "%"}, {"measurement": "changes in blood chemistry or hematology results", "setting": "mice [4]; [7]", "value": "No changes"}, {"measurement": "weight loss (body weight)", "setting": "mice [4]", "value": "8-9%"}, {"measurement": "liver histopathology (hepatocellular cytoplasmic vacuolization / vacuolar changes)", "setting": "mice [4]; [7]", "value": "Mild vacuolar changes"}, {"measurement": "hemolytic activity", "setting": "hemolysis", "value": "highly hemolytically active"}, {"measurement": "body mass lost on average", "setting": "[5]; 20 mcg QS-21", "value": "8-10%"}, {"measurement": "tolerated (maximum) dose in cancer patients", "setting": "[6]; cancer patients, above it local and systemic side effects", "value": "100 to 150", "unit": "µg"}, {"measurement": "maximum dose for healthy patients", "setting": "[6]; healthy patients", "value": "~50", "unit": "µg"}, {"measurement": "highest practical tolerable dose", "setting": "[6]; well (non-cancer) adult and child recipients", "value": "25 to 50", "unit": "µg"}]}]}
